Measurements: PubChem BioAssay (NCI)
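In this assay, cells in 96-well plates receive the compound at five concentrations for 48 hours. Endpoints are linearly interpolated between the surrounding concentrations. Abbreviation: GI50, concentration required for 50% inhibition of growth. TGI marks complete inhibition of growth.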

Assays:
Assay in all cases: NCI anticancer screen, dose series, 48 h
KM12 colon = test system: KM12 colon
SF-268 CNS = test system: SF-268 CNS
COLO 205 colon = test system: COLO 205 colon
SW-620 colon = test system: SW-620 colon
HT29 colon = test system: HT29 colon
MALME-3M melanoma = test system: MALME-3M melanoma
RPMI-8226 leukemia = test system: RPMI-8226 leukemia
NCI/ADR-RES ovarian = test system: NCI/ADR-RES ovarian
LOX IMVI melanoma = test system: LOX IMVI melanoma
SK-MEL-2 melanoma = test system: SK-MEL-2 melanoma

SMILES	GI50 (KM12 colon)	TGI (KM12 colon)	GI50 (SF-268 CNS)	TGI (SF-268 CNS)	GI50 (COLO 205 colon)	TGI (COLO 205 colon)	GI50 (SW-620 colon)	TGI (SW-620 colon)	GI50 (HT29 colon)	TGI (HT29 colon)	GI50 (MALME-3M melanoma)	TGI (MALME-3M melanoma)	GI50 (RPMI-8226 leukemia)	TGI (RPMI-8226 leukemia)	GI50 (NCI/ADR-RES ovarian)	TGI (NCI/ADR-RES ovarian)	GI50 (LOX IMVI melanoma)	TGI (LOX IMVI melanoma)	GI50 (SK-MEL-2 melanoma)	TGI (SK-MEL-2 melanoma)
Cn1c(=O)c2c(ncn2CC(=O)Nc2ccc(-c3ccccc3)nn2)n(C)c1=O	> 100 µM	> 100 µM	> 100 µM	> 100 µM	> 100 µM	> 100 µM	> 100 µM	> 100 µM	> 100 µM	> 100 µM	> 100 µM	> 100 µM	> 100 µM	> 100 µM	> 100 µM	> 100 µM	> 100 µM	> 100 µM	> 100 µM	> 100 µM
O=C(NO)c1ccc(CN(c2cnccn2)c2cnccn2)cc1	10.3 µM	24.2 µM	16.3 µM	32.7 µM	2.96 µM	8.17 µM	12.5 µM	33.7 µM	15.4 µM	38 µM	7.9 µM	23.8 µM	8.68 µM	> 100 µM	10.3 µM	37.4 µM	3.69 µM	18.1 µM	12.2 µM	27 µM
O=C(OCc1ccc2c(Cl)cc(Cl)c(O)c2n1)N1CCN(C(=O)c2cc3cc(F)ccc3[nH]2)CC1	0.58 µM	> 41.3 µM	1.56 µM	> 100 µM	38.7 µM	> 100 µM	0.83 µM	> 100 µM	62.7 µM	> 100 µM	3.71 µM	> 100 µM	0.48 µM	> 100 µM	0.331 µM	–	0.453 µM	> 100 µM	3.23 µM	> 100 µM
COCOc1ccc(C2(O)Oc3cc(OCOC)ccc3C2C)c(O)c1 (stereo not drawn)	–	31.7 µM	–	30 µM	–	32.2 µM	–	32.4 µM	–	32.2 µM	–	28.7 µM	–	> 100 µM	–	30.9 µM	–	34.6 µM	–	32.7 µM
CC1C(c2ccc3c(c2)OCO3)c2cc3c(cc2OC1N1CCOCC1)OCO3 (stereo not drawn)	–	94.2 µM	–	> 100 µM	–	47.4 µM	–	> 100 µM	–	> 85 µM	–	97.6 µM	–	61.6 µM	–	60.6 µM	–	60.2 µM	–	58.8 µM
Nc1ccccc1SC1CC(=O)N(c2ccc(Cl)c(Cl)c2)C1=O (stereo not drawn)	16.2 µM	> 100 µM	29.7 µM	> 100 µM	53.1 µM	> 100 µM	56.5 µM	> 100 µM	42.1 µM	> 100 µM	15.6 µM	> 100 µM	10.6 µM	> 100 µM	17.1 µM	> 100 µM	31.7 µM	> 100 µM	26.9 µM	> 100 µM
O=C(CSC(c1ccccc1)c1ccccc1)N/N=C/c1ccco1	2.03 µM	15.5 µM	2.25 µM	> 12.5 µM	20.3 µM	52 µM	2.9 µM	> 11.6 µM	18.7 µM	48.3 µM	1.53 µM	2.94 µM	1.94 µM	4.45 µM	–	1.24 µM	1.48 µM	5.2 µM	1.4 µM	3.76 µM
